# In patent publication US6737383B1, “Herbicidal oxadiazolidines” (priority 1999, dated 2004):
# Experiments:
# blackgrass = test: Test E blackgrass; assay type: in vivo, Alopecurus myosuroides; settings: Preemergence
# winter wheat [1] = test: Test E winter wheat; assay type: in vivo, Triticum aestivum; settings: Postemergence, 0 to 100 scale, 0 is no effect, 100 is complete control
# Summary of the method: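 Compound formulated with surfactant in a non-phytotoxic solvent (postemergence: young 1- to 4-leaf plants); held in greenhouse approx. 21–28 days; visual assessment against untreated plants.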
# green foxtail = test: Test E green foxtail; assay type: in vivo, Setaria viridis; settings: Preemergence
# wild oat = test: Test E wild oat; assay type: in vivo, Avena fatua; settings: Preemergence
# giant foxtail = test: Test B pre/postemergence giant foxtail; assay type: in vivo, Setaria faberii; settings: for Giant foxtail plant response rating: scale of 0 to 10 where 0 is no effect and 10 is complete control
# Summary of the method: (§1)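 Herbicidal effect was estimated by eye on a ten-point control scale after plants spent twelve to sixteen days in a greenhouse following soil or foliar treatment. Foliar sprays targeted plants at one to four leaves; all doses were formulated in a non-phytotoxic solvent with surfactant.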
# winter wheat [2] = test: Test E winter wheat; assay type: in vivo, Triticum aestivum; settings: Preemergence
# winter barley = test: Test E winter barley; assay type: in vivo, Hordeum vulgare; settings: Preemergence
# crabgrass = test: Test B pre/postemergence crabgrass; assay type: in vivo, Digitaria sanguinalis; settings: for Crabgrass plant response rating: scale of 0 to 10 where 0 is no effect and 10 is complete control
# Summary of the method: as §1
# sugar beet = test: Test B pre/postemergence sugar beet; assay type: in vivo, Beta vulgaris; settings: for Sugarbeets plant response rating: scale of 0 to 10 where 0 is no effect and 10 is complete control
# Summary of the method: as §1
# Italian ryegrass = test: Test E Italian ryegrass; assay type: in vivo, Lolium multiflorum; settings: Preemergence
# soybean = test: Test B pre/postemergence soybean; assay type: in vivo, Glycine max; settings: for Soybean plant response rating: scale of 0 to 10 where 0 is no effect and 10 is complete control
# Summary of the method: as §1
# [3] = Rate 125 g/ha, 0 to 100 scale (0 no effect, 100 complete control)
# [4] = Rate 500 g/ha, 0 to 100 scale (0 no effect, 100 complete control)
# [5] = Postemergence, Rate 125 g/ha, scale 0 to 10, 0 is no effect, 10 is complete control
# [6] = Preemergence, Rate 62 g/ha, scale 0 to 10 (0 no effect, 10 complete control)
# [7] = Rate 500 g/ha, Postemergence, scale 0 to 10, 0 no effect, 10 complete control
structure (smiles),measurement,setting,value
CC(C)N(C(=O)n1oc(=O)n(C2CCC2)c1=O)c1ccc(F)cc1F [Compound 351],"Plant response rating, Blackgrass",blackgrass; [3],35
same,"Plant response rating, Blackgrass","blackgrass; Rate 250 g/ha, 0 to 100 scale",85
same,"Plant response rating, Blackgrass",blackgrass; [4],100
same,"Plant response rating, Wheat (winter)",winter wheat [1]; Rate 125 g/ha,60
same,"Plant response rating, Wheat (winter)",winter wheat [1]; Rate 250 g/ha,70
same,"Plant response rating, Wheat (winter)",winter wheat [1]; Rate 500 g/ha,75
same,"Plant response rating, Green foxtail",green foxtail; [3],40
same,"Plant response rating, Green foxtail","green foxtail; Rate 250 g/ha, 0 to 100 scale",90
same,"Plant response rating, Green foxtail",green foxtail; [4],85
same,"Plant response rating, Wild oat",wild oat; [3],70
same,"Plant response rating, Wild oat","wild oat; Rate 250 g/ha, 0 to 100 scale",70
same,"Plant response rating, Wild oat",wild oat; [4],80
same,"Plant response rating, Giant foxtail",giant foxtail; [5],7
same,"Plant response rating, Giant foxtail",giant foxtail; [6],10
same,Giant foxtail plant response rating (0 to 10 scale),"giant foxtail; Preemergence, Rate 125 g/ha",10
same,Giant foxtail plant response rating,"giant foxtail; Preemergence, Rate 250 g/ha",10
same,Giant foxtail plant response rating,"giant foxtail; Preemergence, Rate 500 g/ha",10
same,Giant foxtail plant response rating,"giant foxtail; Rate 62 g/ha, Postemergence",0
same,"Plant response rating, Giant foxtail",giant foxtail; [7],9
same,"Plant response rating, Wheat (winter)",winter wheat [2]; [3],50
same,"Plant response rating, Wheat (winter)","winter wheat [2]; Rate 250 g/ha, 0 to 100 scale",60
same,"Plant response rating, Wheat (winter)",winter wheat [2]; [4],70
same,"Plant response rating, Barley (winter)",winter barley; [3],70
same,"Plant response rating, Barley (winter)","winter barley; Rate 250 g/ha, 0 to 100 scale, 0 no effect, 100 complete control",70
same,"Plant response rating, Barley (winter)",winter barley; [4],80
same,"Plant response rating, Crabgrass",crabgrass; [5],1
same,"Plant response rating, Crabgrass",crabgrass; [6],7
same,Crabgrass plant response rating (0 to 10 scale),"crabgrass; Preemergence, Rate 125 g/ha",10
same,Crabgrass plant response rating,"crabgrass; Preemergence, Rate 250 g/ha",10
same,Crabgrass plant response rating,"crabgrass; Preemergence, Rate 500 g/ha",10
same,Crabgrass plant response rating,"crabgrass; Rate 62 g/ha, Postemergence",0
same,"Plant response rating, Crabgrass",crabgrass; [7],9
same,"Plant response rating, Sugarbeets",sugar beet; [5],0
same,"Plant response rating, Sugarbeets",sugar beet; [6],2
same,Sugarbeets plant response rating (0 to 10 scale),"sugar beet; Preemergence, Rate 125 g/ha",2
same,Sugarbeets plant response rating,"sugar beet; Preemergence, Rate 250 g/ha",6
same,Sugarbeets plant response rating,"sugar beet; Preemergence, Rate 500 g/ha",8
same,Sugarbeets plant response rating,"sugar beet; Rate 62 g/ha, Postemergence",0
same,"Plant response rating, Sugarbeets",sugar beet; [7],2
same,"Plant response rating, I. Ryegrass",Italian ryegrass; [3],55
same,"Plant response rating, I. Ryegrass","Italian ryegrass; Rate 250 g/ha, 0 to 100 scale",60
same,"Plant response rating, I. Ryegrass",Italian ryegrass; [4],60
same,"Plant response rating, Soybean",soybean; [5],1
same,"Plant response rating, Soybean",soybean; [6],0
same,Soybean plant response rating (0 to 10 scale),"soybean; Preemergence, Rate 125 g/ha",0
same,Soybean plant response rating,"soybean; Preemergence, Rate 250 g/ha",0
same,Soybean plant response rating,"soybean; Preemergence, Rate 500 g/ha",2
same,Soybean plant response rating,"soybean; Rate 62 g/ha, Postemergence",1
same,"Plant response rating, Soybean",soybean; [7],2
